For test [1], the target named is JAK2 (Homo sapiens, UniProt O60674). Nature of the test: JAK/TYK2 assay (Kinase Glo luminescence): Jak2 kinase assay. The class given is biochemical. The conditions noted are these: 0.8 nM enzyme, 2 uM ATP, 4 uM pEY, 1 hr; read-out: Jak2 kinase assay: IC50 Geomean. As to the method: (§1) Example A: JAK/TYK2 Assay 10 mM test compound stock or 1 mM control compound stock (tofocitinib, ruxolitinib or staurosporine) in DMSO was diluted to 0.4 mM in DMSO. A 3-fold series dilution was then performed in DMSO to generate 10 different compound concentrations. The assay was carried out in 384-well white plate. 0.5 μL of 40× compound DMSO solution at different concentrations was mixed with 10 uL 2× enzyme prepared in reaction buffer (20 mM HEPES, 10 mM MgCl2, 0.01% Tween, 1 mM DTT, pH 7.5). 10 uL 2× substrate mixture prepared in reaction buffer was then added to start the reaction. A short spin was done to settle down all solutions to the bottom of the plate. Final concentrations of test compound in the reaction mixture were 10000, 3333, 1111, 370, 123, 41.2, 13.7, 4.57, 1.52 and 0.51 nM, Concentrations of control compound were ten times less. Enzymatic reaction was conducted at 25° C. for 1-2 hours. 10 uL of Kinase Glo Reagents was added to stop the reaction and generate the luminescent signal which was measured using Envision. Luminescence signal was inversely related to kinase activity. […] The mixture without any compound was the positive control. [table]
Background: In Kinase-Glo more light means more ATP remaining.

In test [2] the target is TYK2 (Homo sapiens, UniProt P29597). Briefly: JAK/TYK2 assay (Kinase Glo luminescence): Tyk2 kinase assay. The class given is biochemical. The conditions noted are these: 9 nM enzyme, 2 uM ATP, 30 uM IRS-1, 1 hr; read-out: Tyk2 kinase assay: IC50 Geomean. The method, then: as §1
Test [3] deals with T1, JAK3 (Homo sapiens, UniProt P52333).
T1 sequence (P52333 1-1124): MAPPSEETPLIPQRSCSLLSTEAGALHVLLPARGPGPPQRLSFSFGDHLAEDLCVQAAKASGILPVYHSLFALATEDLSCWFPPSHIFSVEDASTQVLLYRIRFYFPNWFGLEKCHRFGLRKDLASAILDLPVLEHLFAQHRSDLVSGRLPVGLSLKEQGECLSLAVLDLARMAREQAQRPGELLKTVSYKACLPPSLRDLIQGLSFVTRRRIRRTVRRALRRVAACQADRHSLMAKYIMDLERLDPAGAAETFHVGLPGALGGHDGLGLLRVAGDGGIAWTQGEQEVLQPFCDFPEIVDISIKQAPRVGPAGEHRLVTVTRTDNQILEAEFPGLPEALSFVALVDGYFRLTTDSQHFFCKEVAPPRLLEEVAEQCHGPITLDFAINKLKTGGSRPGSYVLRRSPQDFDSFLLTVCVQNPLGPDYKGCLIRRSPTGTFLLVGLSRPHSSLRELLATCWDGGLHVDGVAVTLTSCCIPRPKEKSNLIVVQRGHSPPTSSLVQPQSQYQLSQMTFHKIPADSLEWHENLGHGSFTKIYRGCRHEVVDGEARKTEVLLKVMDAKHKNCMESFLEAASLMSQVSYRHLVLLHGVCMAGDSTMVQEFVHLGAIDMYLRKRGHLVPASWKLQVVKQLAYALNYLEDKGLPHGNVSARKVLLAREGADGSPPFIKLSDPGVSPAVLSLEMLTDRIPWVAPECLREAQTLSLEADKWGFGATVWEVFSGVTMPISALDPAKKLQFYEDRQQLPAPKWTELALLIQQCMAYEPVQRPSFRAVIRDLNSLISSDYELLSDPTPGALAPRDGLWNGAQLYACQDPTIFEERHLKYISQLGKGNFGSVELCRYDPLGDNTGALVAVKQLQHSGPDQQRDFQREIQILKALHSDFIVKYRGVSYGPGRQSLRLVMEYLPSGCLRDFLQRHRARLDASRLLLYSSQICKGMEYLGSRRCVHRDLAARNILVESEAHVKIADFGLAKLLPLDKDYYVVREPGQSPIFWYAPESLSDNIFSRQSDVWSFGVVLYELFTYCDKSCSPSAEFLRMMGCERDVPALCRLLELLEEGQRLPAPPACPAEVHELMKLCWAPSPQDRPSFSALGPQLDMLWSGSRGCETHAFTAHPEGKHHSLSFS
Nature of the test: JAK/TYK2 assay (Kinase Glo luminescence): Jak3 kinase assay. Format: biochemical. The conditions noted are these: 1.5 nM enzyme, 2 uM ATP, 4 uM pEY, 1 hr; read-out: Jak3 kinase assay: IC50 Geomean. The method, then: as §1

Test [4] deals with JAK2: GM-CSF stimulated STAT5 phosphorylation. Nature of the test: Co-stimulation assay in lysed whole blood; JAK2: GM-CSF stimulated STAT5 phosphorylation. Format: cell-based, human. The conditions noted are these: Homo sapiens, read-out: GMCSF/J2/pS5: GeoMean (nM). The method, then: Example C: Co-Stimulation Assay in Lysed Whole Blood; JAK2: GM-CSF Stimulated STAT5 Phosphorylation and JAK1/TYK2 Stimulated STAT1 Phosphorylation Assay
Human Blood Lysis using abcam's RBC lysis buffer
Dilute RBC lysis buffer to 1× in distilled water. Add 2 mL blood to 38 mL of 1×RBC-lysis buffer. Incubate for 15 mins at RT, in dark. Spin at 300 g, 5 mins, to collect the pellet. Re-lyse if necessary. Re-suspend pellet in 5 mL of cRPMI.
Aliquot 80 μL of lysed human blood in to wells of 96 deep-well plate. Add 10 μl of (10× conc.) of different concentrations of compounds to all wells except controls (unstained and unstimulated) and mix it with the help of 100 uL multichannel Add 10 uL of RPMI media in controls. For dilution of compounds and dilution range please refer Appendix. Incubate on water bath or CO2 incubator for 1 hour at 37° C. Add 10 μl of (10× conc.) of cytokine mix (GM-CSF and IFNa) (final conc. 10 ng/mL of GM-CSF and 100 ng/mL of IFNa) to each well except unstimulated and unstained controls and incubate further for 20 minutes on water bath at 37° C.
Add 900 μL of prewarmed 1× Fix/Lyse solution (Appendix) and mix it properly using 1000 μl multichannel, incubate further on water bath at 37° C. for 10 minutes (which includes time of addition). Centrifuge at 800×g for 5 minutes at 40° C.; remove 900 uL of supernatant and add 900 μL of 1×PBS. Centrifuge at 800×g for 5 minutes at 40° C., remove 900 μL of supernatant. Wash one more time with 900 μL of PBS (optional) and resuspend pellets in 100 uL of PBS.
Disrupt the pellet by gentle tapping and resuspend in 1000 μL of BD Phosflow Perm Buffer III and incubate plate on ice for 30 minutes. Centrifuge plate at 800×g for 5 minutes at 40° C. Wash two more times with 1000 μL of BD Pharmingen Stain Buffer.
Disrupt the pellet by gentle tapping. Resuspend pellets in 100 uL of Stain Buffer and add 5 μL of pSTAT5_AF488 Ab and 5 uL of pSTAT1_PE in all wells except unstained control and mix properly using 200 μl multichannel, incubate overnight at […]. Add 900 μL of wash buffer and centrifuge at 1800 rpm for 3 minutes at […]. Wash one more time with 1000 μL of BD Pharmingen Stain Buffer. Finally resuspend the pellet in 300 uL of BD Pharmingen Stain Buffer. Transfer the cells to 96-well v-bottom plate and acquire the cells in Beckman Coulter CytExpert. Acquiring cells in Flow Cytometer: Keep the threshold value to 250 and cell concentration should not exceed 100-500 cells/4. Acquire at least 5,000-10,000 cells.
RPMI 1640 Complete Medium: RPMI 1640 media+10% FBS.
Cytokine dilution: 1) GM-CSF Stock at 100 ug/mL. Prepare an intermediate dilution of 1 ug/mL by adding 2 uL of stock into 198 uL of cRPMI. Further dilute to 100 ng/mL by adding 100 uL of the intermediate stock to 900 uL of cRPMI. 2) IFNa Stock at 200 ug/mL. Dilute IFNa stock 1:200 by adding 5 uL of stock into the 1000 uL of 100 ng/mL GM-CSF working stock as above to give a combined working stock of 1000 ng/mL of IFNa and 100 ng/mL GM-CSF (10×). Keep it on ice until used.
Lyse/Fix buffer preparation: Dilute 5× Lyse/Fix buffer to 1× using MQ water and keep at 37° C. until used.
BD Phosflow perm buffer III: Keep on ice/fridge

Test [5] addresses JAK1 (Homo sapiens, UniProt P23458). Briefly: JAK/TYK2 assay (Kinase Glo luminescence): Jak1 kinase assay. Format: biochemical. The note with it: 7.5 nM enzyme, 2 uM ATP, 30 uM IRS-1, 1 hr. As to the method: as §1

Chain of JAK1 (P23458 whole entry, species assumed): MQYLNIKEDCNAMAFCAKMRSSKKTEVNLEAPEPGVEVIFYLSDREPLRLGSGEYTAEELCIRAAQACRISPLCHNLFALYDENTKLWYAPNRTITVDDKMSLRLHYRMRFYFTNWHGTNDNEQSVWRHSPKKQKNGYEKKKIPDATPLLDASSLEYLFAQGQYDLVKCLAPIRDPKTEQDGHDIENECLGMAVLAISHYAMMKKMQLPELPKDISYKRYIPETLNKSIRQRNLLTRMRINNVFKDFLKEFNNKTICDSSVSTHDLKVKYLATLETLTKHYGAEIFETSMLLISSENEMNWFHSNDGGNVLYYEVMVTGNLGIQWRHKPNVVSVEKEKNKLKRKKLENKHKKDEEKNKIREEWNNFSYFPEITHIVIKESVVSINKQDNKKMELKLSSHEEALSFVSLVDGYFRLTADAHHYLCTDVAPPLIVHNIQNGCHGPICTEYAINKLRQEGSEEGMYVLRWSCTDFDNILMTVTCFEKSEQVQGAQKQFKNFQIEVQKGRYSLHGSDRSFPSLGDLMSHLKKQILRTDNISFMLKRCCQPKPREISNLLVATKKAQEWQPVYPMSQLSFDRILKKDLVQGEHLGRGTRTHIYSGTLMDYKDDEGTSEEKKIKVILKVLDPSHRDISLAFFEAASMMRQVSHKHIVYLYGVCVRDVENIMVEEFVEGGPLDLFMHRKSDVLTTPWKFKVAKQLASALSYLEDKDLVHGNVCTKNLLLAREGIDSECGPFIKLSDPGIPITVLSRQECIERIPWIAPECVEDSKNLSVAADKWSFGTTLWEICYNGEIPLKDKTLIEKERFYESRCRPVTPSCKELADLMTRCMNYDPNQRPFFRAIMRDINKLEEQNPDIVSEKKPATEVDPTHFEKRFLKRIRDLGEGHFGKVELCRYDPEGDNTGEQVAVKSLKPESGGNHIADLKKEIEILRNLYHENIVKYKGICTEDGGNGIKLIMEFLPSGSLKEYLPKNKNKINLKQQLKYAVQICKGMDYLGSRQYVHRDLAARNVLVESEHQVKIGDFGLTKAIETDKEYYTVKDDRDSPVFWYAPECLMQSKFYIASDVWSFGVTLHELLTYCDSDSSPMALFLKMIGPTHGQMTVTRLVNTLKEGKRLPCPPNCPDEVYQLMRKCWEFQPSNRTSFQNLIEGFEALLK
Chain of JAK2 (O60674 whole entry, species assumed): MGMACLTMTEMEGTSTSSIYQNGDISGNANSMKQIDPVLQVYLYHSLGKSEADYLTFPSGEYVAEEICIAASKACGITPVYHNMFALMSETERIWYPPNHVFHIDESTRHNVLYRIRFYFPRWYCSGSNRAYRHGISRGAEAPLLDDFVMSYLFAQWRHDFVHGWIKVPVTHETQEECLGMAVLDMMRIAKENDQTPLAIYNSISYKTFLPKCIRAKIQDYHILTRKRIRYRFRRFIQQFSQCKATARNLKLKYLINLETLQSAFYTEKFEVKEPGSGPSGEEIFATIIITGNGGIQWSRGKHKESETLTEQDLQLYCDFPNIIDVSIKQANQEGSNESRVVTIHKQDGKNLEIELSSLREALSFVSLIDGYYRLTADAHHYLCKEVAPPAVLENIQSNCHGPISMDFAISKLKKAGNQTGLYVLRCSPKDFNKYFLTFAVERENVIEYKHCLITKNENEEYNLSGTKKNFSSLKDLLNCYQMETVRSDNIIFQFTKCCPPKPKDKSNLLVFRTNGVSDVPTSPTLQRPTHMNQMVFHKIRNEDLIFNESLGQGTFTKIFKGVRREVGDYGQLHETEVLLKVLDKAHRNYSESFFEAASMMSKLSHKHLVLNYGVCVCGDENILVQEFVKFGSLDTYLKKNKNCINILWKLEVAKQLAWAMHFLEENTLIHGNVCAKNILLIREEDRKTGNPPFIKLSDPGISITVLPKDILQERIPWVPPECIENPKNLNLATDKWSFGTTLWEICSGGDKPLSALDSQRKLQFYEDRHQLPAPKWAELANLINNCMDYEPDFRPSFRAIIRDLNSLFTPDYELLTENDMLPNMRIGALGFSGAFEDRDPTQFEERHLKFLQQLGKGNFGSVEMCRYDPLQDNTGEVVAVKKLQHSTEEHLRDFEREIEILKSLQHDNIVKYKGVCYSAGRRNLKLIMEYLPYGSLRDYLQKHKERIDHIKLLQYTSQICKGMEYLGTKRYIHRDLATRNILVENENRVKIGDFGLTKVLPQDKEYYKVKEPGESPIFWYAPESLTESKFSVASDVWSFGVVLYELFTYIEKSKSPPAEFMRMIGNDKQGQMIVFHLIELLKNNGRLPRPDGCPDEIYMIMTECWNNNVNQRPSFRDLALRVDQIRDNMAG
Chain of TYK2 (P29597 whole entry, species assumed): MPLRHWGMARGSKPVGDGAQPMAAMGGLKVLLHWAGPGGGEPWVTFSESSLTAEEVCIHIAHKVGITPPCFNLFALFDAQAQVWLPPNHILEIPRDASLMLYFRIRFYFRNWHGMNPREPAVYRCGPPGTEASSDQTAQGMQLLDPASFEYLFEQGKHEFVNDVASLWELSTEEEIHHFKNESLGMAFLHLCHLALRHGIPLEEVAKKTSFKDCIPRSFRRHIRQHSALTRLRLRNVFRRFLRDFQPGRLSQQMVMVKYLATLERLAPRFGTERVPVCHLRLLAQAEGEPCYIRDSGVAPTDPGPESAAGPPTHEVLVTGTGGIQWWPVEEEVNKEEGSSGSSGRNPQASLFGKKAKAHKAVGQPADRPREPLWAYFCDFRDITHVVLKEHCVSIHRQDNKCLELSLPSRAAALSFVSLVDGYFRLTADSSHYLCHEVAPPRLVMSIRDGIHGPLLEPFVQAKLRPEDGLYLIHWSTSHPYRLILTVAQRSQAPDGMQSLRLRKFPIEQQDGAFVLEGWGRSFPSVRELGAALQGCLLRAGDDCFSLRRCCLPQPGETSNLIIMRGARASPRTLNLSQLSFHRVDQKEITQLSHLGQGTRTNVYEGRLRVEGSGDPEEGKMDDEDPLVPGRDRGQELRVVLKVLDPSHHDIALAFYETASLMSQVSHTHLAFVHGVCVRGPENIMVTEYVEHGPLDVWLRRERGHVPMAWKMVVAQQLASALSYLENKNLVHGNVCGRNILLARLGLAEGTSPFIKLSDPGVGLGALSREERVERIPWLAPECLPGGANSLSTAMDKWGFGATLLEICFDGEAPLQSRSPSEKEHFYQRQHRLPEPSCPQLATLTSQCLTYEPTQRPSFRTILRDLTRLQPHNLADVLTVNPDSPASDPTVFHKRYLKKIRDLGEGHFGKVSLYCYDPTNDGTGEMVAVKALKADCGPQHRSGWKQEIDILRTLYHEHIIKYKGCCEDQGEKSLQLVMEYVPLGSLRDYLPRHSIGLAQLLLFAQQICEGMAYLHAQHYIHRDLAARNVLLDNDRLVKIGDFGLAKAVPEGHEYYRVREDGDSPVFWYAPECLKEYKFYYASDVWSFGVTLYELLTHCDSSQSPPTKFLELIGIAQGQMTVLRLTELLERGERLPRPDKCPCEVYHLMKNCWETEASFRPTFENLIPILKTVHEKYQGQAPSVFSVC

`CC[C@H](Cn1ccc2cnc(Nc3cnn(CC(=O)Nc4ccncc4)c3)nc21)C(C)C` [Example 2, (5)-2-(4-((7-(2-ethyl-3-methylbutyl)-7H-pyrrolo[2,3-d]pyrimidin-2-yl)amino)-1H-pyrazol-1-yl)-N-(pyridin-4-yl) acetamide]: the IC50 in test [1] is under 100 nM; in test [2], under 100 nM; in test [3] it was under 100 nM; in test [4] it was 1000 to 10000 nM; in test [5] it was under 100 nM.

Consider `CC[C@H](Cn1ccc2cnc(Nc3cnn(CC(=O)N(C)S(C)(=O)=O)c3)nc21)C(C)C` [Example 4, (5)-2-(4-((7-(2-ethyl-3-methylbutyl)-7H-pyrrolo[2,3-d]pyrimidin-2-yl)amino)-1H-pyrazol-1-yl)-N-methyl-N-(methylsulfonyl) acetamide], for which the IC50 is under 100 nM in test [1]; under 100 nM in test [2]; under 100 nM in test [3]; 100 to 1000 nM in test [4]; under 100 nM in test [5].

As for `CCC(CC)Cn1ccc2cnc(Nc3cnn(CC(=O)N(C)C)c3)nc21` [Example 5, 2-(4-((7-(2-ethylbutyl)-7H-pyrrolo[2,3-d]pyrimidin-2-yl)amino)-1H-pyrazol-1-yl)-N, N-dimethylacetamide], the IC50 in test [1] is under 100 nM; in test [2], under 100 nM; in test [3] it was under 100 nM; in test [4] it was 1000 to 10000 nM; in test [5] it was under 100 nM.

Turning to `CCC(CC)Cn1ccc2cnc(Nc3cnn(CC(=O)NC)c3)nc21` [Example 6, 2-(4-((7-(2-ethylbutyl)-7H-pyrrolo[2,3-d]pyrimidin-2-yl)amino)-1H-pyrazol-1-yl)-N-methylacetamide], the IC50 in test [1] was under 100 nM; in test [2] it was under 100 nM; in test [3], under 100 nM; in test [4] it was 100 to 1000 nM; in test [5], under 100 nM.

These data come from US20230024521A1, “JAK INHIBITORS” (Vimalan Biosciences, Inc., priority 2019, published 2023).
